Source: EP0164204A1, “Novel pharmaceutically useful pyrimidines” (FISONS plc, priority 1984, dated 1985)

Tested on: immune response to oxazolone
Assay: Rescue of the cyclophosphamide-inhibited delayed contact response to oxazolone in mice (Example A, b)
Format: in vivo
Conditions: Mus musculus, ip, 48 h; cyclophosphamide alone, 200mg/kg intraperitoneal, two days after sensitisation with oxazolone; C57B1 mice

O=P1(N(CCCl)CCCl)NCCCO1 (stereo not shown) [cyclophosphamide]
inhibition at 200 mg/kg: 64%
